Experimental data reported in US20060258729A1, “Antibacterial pyrazole carboxylic acid hydrazides” (priority 2002, published 2006).
Converted amounts (≈) assume the structure as drawn.

What was measured:
S. aureus Smith strain = assay: Inhibition of bacterial growth (MIC), Sm; format: cell-based, Staphylococcus aureus; settings: Staphylococcus aureus, 16 to 18 hours, 37° C., read-out: Minimum Inhibitory Concentration for Bacterial Growth, Sm
Summary of the method: (§1)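 Compounds are diluted two-fold in DMSO over 11 concentrations, commonly 80 down to 0.078 μg/mL, then combined with bacteria at 1×10^5 CFU/mL in LB or BHI (final DMSO 1%).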

[1] = system: methicillin-resistant S. aureus strain 1094; assay: Inhibition of bacterial growth (MIC), MRSA; format: cell-based, Staphylococcus aureus; settings: Staphylococcus aureus, MRSA, 16 to 18 hours, 37° C., read-out: Minimum Inhibitory Concentration for Bacterial Growth, MRSA
Summary of the method: as §1

[2] = system: Escherichia coli strain J53; assay: Inhibition of bacterial growth (MIC), Ec; format: cell-based; settings: 16 to 18 hours, 37° C., read-out: Minimum Inhibitory Concentration for Bacterial Growth, Ec
Summary of the method: as §1

B. subtilis pol IIIC = target: T1, B. subtilis pol IIIC (Bacillus subtilis, UniProt P13267); assay: Classical enzyme kinetic analyses (Lineweaver-Burk) with pol IIIC; format: biochemical; settings: variable substrate dGTP; Compound 17 at 0, 20, 60 μM; HB-EMAU at 0, 1.6, 4.8 μM
T1 construct: made in house
Experimental: The variable substrate in the experiments for FIGS. 1A and 1B was dGTP. See text for details.
Classical enzyme kinetic analyses were performed with Compound 17 and pol IIIC in which reaction velocity was measured as a function of each substrate (dGTP) concentration at several inhibitor concentrations (0, 20, and 60 μM). The results are graphed in a double reciprocal plot by the method of Lineweaver and Burk in FIG. 1A and show the effect of varying dGTP.
Compounds of the anilinouracil (AU) family, classical DNA polymerase inhibitors, inhibit pol IIIC strictly by “competitive” inhibition. An example is shown in the double reciprocal plot in FIG. 1B for the compound N3-hydroxybutyl 6-(3′-ethyl-4′-methylanilino) uracil (HB-EMAU), tested at 0, 1.6, and 4.8 μM. Such AU compounds compete with the dGTP substrate for binding to the enzyme (Clements et al., J. Biol. Chem. 250, 522-526 (1975)). “Noncompetive” inhibitors are exemplified by the class of HIV reverse transcriptase inhibitors, 4,5,6,7-tetrahydro-5-methylimidazo[4,5,1-jk][1,4]benzodiazepin-2(1H)-one (TIBO), i.e., TIBO compounds bind a site adjacent to the active site (Spence et al., Science 267, 988-993 (1995)). In contrast, the data in FIG. 1A clearly indicate that Compound 17, a pyrazole carboxylic acid hydrazide, inhibits pol IIIC by an “uncompetitive” mechanism.

T1 sequence (P13267 whole entry): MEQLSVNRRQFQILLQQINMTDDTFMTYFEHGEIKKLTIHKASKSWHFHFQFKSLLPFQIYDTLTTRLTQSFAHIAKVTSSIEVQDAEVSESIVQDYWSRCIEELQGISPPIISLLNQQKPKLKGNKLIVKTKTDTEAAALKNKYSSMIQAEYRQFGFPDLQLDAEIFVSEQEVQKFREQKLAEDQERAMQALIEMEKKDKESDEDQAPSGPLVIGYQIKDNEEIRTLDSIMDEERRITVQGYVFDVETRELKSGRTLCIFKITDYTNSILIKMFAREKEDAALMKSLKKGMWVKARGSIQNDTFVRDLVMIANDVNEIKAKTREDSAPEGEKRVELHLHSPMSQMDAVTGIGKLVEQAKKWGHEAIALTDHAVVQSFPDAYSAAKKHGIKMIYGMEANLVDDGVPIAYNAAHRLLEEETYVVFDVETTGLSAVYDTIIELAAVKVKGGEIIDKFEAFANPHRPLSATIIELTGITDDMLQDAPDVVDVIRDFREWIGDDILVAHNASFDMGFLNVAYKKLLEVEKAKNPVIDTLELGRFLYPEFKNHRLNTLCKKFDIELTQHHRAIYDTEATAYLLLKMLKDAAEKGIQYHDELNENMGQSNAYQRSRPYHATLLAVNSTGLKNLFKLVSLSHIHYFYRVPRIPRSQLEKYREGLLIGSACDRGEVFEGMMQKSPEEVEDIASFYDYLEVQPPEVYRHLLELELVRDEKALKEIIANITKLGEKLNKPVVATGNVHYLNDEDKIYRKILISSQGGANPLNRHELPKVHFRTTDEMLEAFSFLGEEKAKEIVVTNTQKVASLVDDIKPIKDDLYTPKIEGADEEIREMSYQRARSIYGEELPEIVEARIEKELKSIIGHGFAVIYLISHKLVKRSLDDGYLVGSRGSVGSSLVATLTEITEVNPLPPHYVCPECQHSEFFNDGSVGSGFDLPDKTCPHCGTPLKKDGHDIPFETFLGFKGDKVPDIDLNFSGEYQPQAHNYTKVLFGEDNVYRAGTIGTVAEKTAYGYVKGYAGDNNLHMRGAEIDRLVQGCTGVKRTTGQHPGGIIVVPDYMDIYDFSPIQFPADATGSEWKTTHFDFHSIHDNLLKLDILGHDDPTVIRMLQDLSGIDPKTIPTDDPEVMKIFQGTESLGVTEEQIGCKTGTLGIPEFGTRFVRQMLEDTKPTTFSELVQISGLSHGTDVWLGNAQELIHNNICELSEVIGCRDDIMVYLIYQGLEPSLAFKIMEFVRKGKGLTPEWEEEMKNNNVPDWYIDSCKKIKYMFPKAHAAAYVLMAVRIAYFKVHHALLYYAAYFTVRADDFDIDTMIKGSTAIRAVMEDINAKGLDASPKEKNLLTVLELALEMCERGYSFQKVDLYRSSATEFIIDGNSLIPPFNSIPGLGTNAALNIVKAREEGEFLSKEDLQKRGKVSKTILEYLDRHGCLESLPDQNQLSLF

How did the MIC (S. aureus Smith strain) turn out when `COc1ccc(-c2cc(C(=O)NN=Cc3cc(OC)c(OC)c(OC)c3)[nH]n2)cc1` [Compound 17] was run?
The MIC was 2.5 µg/mL (≈ 6.09 µM).

What about the MIC [1] of the same compound?
Its MIC is 2.5 µg/mL (≈ 6.09 µM).

What about the MIC [2] of the same compound?
Its MIC is over 80 µg/mL.

And the “Mechanism of inhibition of pol IIIC (double reciprocal plot)” value (B. subtilis pol IIIC)?
The value was “uncompetitive inhibition mechanism”.
